Experimental data reported in ChEMBL document CHEMBL3351930, “Synthesis of novel chiral TBBt derivatives with hydroxyl moiety. Studies on inhibition of human protein kinase CK2α and cytotoxicity properties” (Eur J Med Chem, 2014).

Each molecule was assayed on CCRF-CEM (assay: Anticancer activity against human CCRF-CEM cells assessed as cell viability at 12.5 uM after 48 hrs by MTT assay). Details: read-out: Activity.
Format: functional

Going from C[C@H](O)Cn1nc2c(Br)c(Br)c(Br)c(Br)c2n1 to OCC(O)Cn1nc2c(Br)c(Br)c(Br)c(Br)c2n1 (racemic), the viability at 12.5 µM falls from 105% to 60%.

Work on OC(CCn1nc2c(Br)c(Br)c(Br)c(Br)c2n1)c1cccc(Cl)c1 (stereo not given) yielded a viability at 12.5 µM of 70%.

What follows are molecules tested on MCF7 (assay: Anticancer activity against human MCF7 cells assessed as cell viability at 50 uM after 24 hrs by MTT assay). Details: MCF7, 24 h, read-out: Activity.
Format: functional

Compared with C[C@H](O)Cn1nc2c(Br)c(Br)c(Br)c(Br)c2n1, OCC(O)Cn1nc2c(Br)c(Br)c(Br)c(Br)c2n1 (racemic) is higher in viability at 50 µM: 58% for the first, 98% for the second.

OC(CCn1nc2c(Br)c(Br)c(Br)c(Br)c2n1)c1cccc(Cl)c1 (stereo not given) showed a viability at 50 µM of 28%.

These molecules were tested on MCF7 (assay: Anticancer activity against human MCF7 cells assessed as cell viability at 50 uM after 48 hrs by MTT assay). Details: MCF7, 48 h, read-out: Activity.
Format: functional

First: C[C@H](O)Cn1nc2c(Br)c(Br)c(Br)c(Br)c2n1
Second: OCC(O)Cn1nc2c(Br)c(Br)c(Br)c(Br)c2n1 (racemic)
The viability at 50 µM of the first is lower: 10% for the first, 109% for the second.

With OC(CCn1nc2c(Br)c(Br)c(Br)c(Br)c2n1)c1cccc(Cl)c1 (stereo not given) the viability at 50 µM was 12%.

What follows are molecules tested against Casein kinase II subunit alpha (Homo sapiens) (UniProt P68400) (assay: Inhibition of human CK2alpha using RRRDDDSDDD peptide substrate at 20 uM by P81 filter-binding assay). Details: not given.
Casein kinase II subunit alpha (Homo sapiens), sequence (P68400 whole entry, looked up): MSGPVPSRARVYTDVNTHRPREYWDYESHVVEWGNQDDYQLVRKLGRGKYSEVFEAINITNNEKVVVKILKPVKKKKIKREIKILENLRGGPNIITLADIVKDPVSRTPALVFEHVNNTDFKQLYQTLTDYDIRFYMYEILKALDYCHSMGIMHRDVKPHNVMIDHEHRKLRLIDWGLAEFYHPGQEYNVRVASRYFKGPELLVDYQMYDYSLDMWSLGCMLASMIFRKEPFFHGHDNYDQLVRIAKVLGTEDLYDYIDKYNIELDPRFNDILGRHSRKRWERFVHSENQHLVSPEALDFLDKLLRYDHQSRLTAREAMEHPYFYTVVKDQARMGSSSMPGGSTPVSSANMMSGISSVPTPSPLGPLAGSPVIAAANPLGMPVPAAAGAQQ
Parameters: scale not given: the % may be the effect or the level left

With OC(CCn1nc2c(Br)c(Br)c(Br)c(Br)c2n1)c1cccc(Cl)c1 (stereo not given) the Activity was 74.9%.

Each molecule was assayed on CCRF-CEM (assay: Anticancer activity against human CCRF-CEM cells assessed as cell viability at 12.5 uM after 24 hrs by MTT assay). Details: read-out: Activity.
Format: functional

Compared with C[C@H](O)Cn1nc2c(Br)c(Br)c(Br)c(Br)c2n1, OCC(O)Cn1nc2c(Br)c(Br)c(Br)c(Br)c2n1 (racemic) is lower in viability at 12.5 µM: 104% for the first, 78% for the second.

OC(CCn1nc2c(Br)c(Br)c(Br)c(Br)c2n1)c1cccc(Cl)c1 (stereo not given) showed a viability at 12.5 µM of 110%.

Each molecule was assayed on CCRF-CEM (assay: Anticancer activity against human CCRF-CEM cells assessed as cell viability at 100 uM after 48 hrs by MTT assay). Details: read-out: Activity.
Format: functional

Compared with C[C@H](O)Cn1nc2c(Br)c(Br)c(Br)c(Br)c2n1, OCC(O)Cn1nc2c(Br)c(Br)c(Br)c(Br)c2n1 (racemic) is higher in viability at 100 µM: 0% for the first, 1% for the second.

In the case of OC(CCn1nc2c(Br)c(Br)c(Br)c(Br)c2n1)c1cccc(Cl)c1 (stereo not given), the viability at 100 µM was 0%.

What follows are molecules tested on MCF7 (assay: Anticancer activity against human MCF7 cells assessed as cell viability at 12.5 uM after 24 hrs by MTT assay). Details: MCF7, 24 h, read-out: Activity.
Format: functional

Compared with C[C@H](O)Cn1nc2c(Br)c(Br)c(Br)c(Br)c2n1, OCC(O)Cn1nc2c(Br)c(Br)c(Br)c(Br)c2n1 (racemic) is higher in viability at 12.5 µM: 119% for the first, 145% for the second.

OC(CCn1nc2c(Br)c(Br)c(Br)c(Br)c2n1)c1cccc(Cl)c1 (stereo not given) was tested, and the viability at 12.5 µM was 97%.

These molecules were tested against Casein kinase II subunit alpha (Homo sapiens) (UniProt P68400) (assay: Inhibition of human CK2alpha using RRRDDDSDDD peptide substrate at 200 uM by P81 filter-binding assay). Details: not given.
Parameters: scale not given: the % may be the effect or the level left

Molecule OC(CCn1nc2c(Br)c(Br)c(Br)c(Br)c2n1)c1cccc(Cl)c1 (stereo not given) has an Activity of 23.8%.

These molecules were tested on CCRF-CEM (assay: Anticancer activity against human CCRF-CEM cells assessed as cell viability at 25 uM after 48 hrs by MTT assay). Details: read-out: Activity.
Format: functional

Compared with C[C@H](O)Cn1nc2c(Br)c(Br)c(Br)c(Br)c2n1, OCC(O)Cn1nc2c(Br)c(Br)c(Br)c(Br)c2n1 (racemic) is lower in viability at 25 µM: 92% for the first, 56% for the second.

Work on OC(CCn1nc2c(Br)c(Br)c(Br)c(Br)c2n1)c1cccc(Cl)c1 (stereo not given) yielded a viability at 25 µM of 68%.

What follows are molecules tested on CCRF-CEM (assay: Anticancer activity against human CCRF-CEM cells assessed as cell viability at 100 uM after 24 hrs by MTT assay). Details: read-out: Activity.
Format: functional

Compared with C[C@H](O)Cn1nc2c(Br)c(Br)c(Br)c(Br)c2n1, OCC(O)Cn1nc2c(Br)c(Br)c(Br)c(Br)c2n1 (racemic) is lower in viability at 100 µM: 9% for the first, 8% for the second.

Work on OC(CCn1nc2c(Br)c(Br)c(Br)c(Br)c2n1)c1cccc(Cl)c1 (stereo not given) yielded a viability at 100 µM of 0%.

Each molecule was assayed on MCF7 (assay: Anticancer activity against human MCF7 cells assessed as cell viability at 12.5 uM after 48 hrs by MTT assay). Details: MCF7, 48 h, read-out: Activity.
Format: functional

Going from C[C@H](O)Cn1nc2c(Br)c(Br)c(Br)c(Br)c2n1 to OCC(O)Cn1nc2c(Br)c(Br)c(Br)c(Br)c2n1 (racemic), the viability at 12.5 µM rises from 101% to 116%.

OC(CCn1nc2c(Br)c(Br)c(Br)c(Br)c2n1)c1cccc(Cl)c1 (stereo not given) was tested, and the viability at 12.5 µM was 107%.

The molecules below were run on MCF7 (assay: Anticancer activity against human MCF7 cells assessed as cell viability at 25 uM after 24 hrs by MTT assay). Details: MCF7, 24 h, read-out: Activity.
Format: functional

Going from C[C@H](O)Cn1nc2c(Br)c(Br)c(Br)c(Br)c2n1 to OCC(O)Cn1nc2c(Br)c(Br)c(Br)c(Br)c2n1 (racemic), the viability at 25 µM rises from 67% to 156%.

Molecule OC(CCn1nc2c(Br)c(Br)c(Br)c(Br)c2n1)c1cccc(Cl)c1 (stereo not given) has a viability at 25 µM of 96%.

The molecules below were run on CCRF-CEM (assay: Anticancer activity against human CCRF-CEM cells assessed as cell viability at 50 uM after 48 hrs by MTT assay). Details: read-out: Activity.
Format: functional

Going from C[C@H](O)Cn1nc2c(Br)c(Br)c(Br)c(Br)c2n1 to OCC(O)Cn1nc2c(Br)c(Br)c(Br)c(Br)c2n1 (racemic), the viability at 50 µM falls from 58% to 27%.

Molecule OC(CCn1nc2c(Br)c(Br)c(Br)c(Br)c2n1)c1cccc(Cl)c1 (stereo not given) has a viability at 50 µM of 0%.

What follows are molecules tested on MCF7 (assay: Anticancer activity against human MCF7 cells assessed as cell viability at 100 uM after 48 hrs by MTT assay). Details: MCF7, 48 h, read-out: Activity.
Format: functional

C[C@H](O)Cn1nc2c(Br)c(Br)c(Br)c(Br)c2n1 and OCC(O)Cn1nc2c(Br)c(Br)c(Br)c(Br)c2n1 (racemic) are the same in viability at 100 µM: 8% for the first, 8% for the second.

For OC(CCn1nc2c(Br)c(Br)c(Br)c(Br)c2n1)c1cccc(Cl)c1 (stereo not given), the viability at 100 µM was 0.5%.

What follows are molecules tested on MCF7 (assay: Anticancer activity against human MCF7 cells assessed as cell viability at 100 uM after 24 hrs by MTT assay). Details: MCF7, 24 h, read-out: Activity.
Format: functional

Going from C[C@H](O)Cn1nc2c(Br)c(Br)c(Br)c(Br)c2n1 to OCC(O)Cn1nc2c(Br)c(Br)c(Br)c(Br)c2n1 (racemic), the viability at 100 µM rises from 25% to 53%.

With OC(CCn1nc2c(Br)c(Br)c(Br)c(Br)c2n1)c1cccc(Cl)c1 (stereo not given) the viability at 100 µM was 0%.

Each molecule was assayed on MCF7 (assay: Anticancer activity against human MCF7 cells assessed as cell viability at 25 uM after 48 hrs by MTT assay). Details: MCF7, 48 h, read-out: Activity.
Format: functional

First: C[C@H](O)Cn1nc2c(Br)c(Br)c(Br)c(Br)c2n1
Second: OCC(O)Cn1nc2c(Br)c(Br)c(Br)c(Br)c2n1 (racemic)
The viability at 25 µM of the first is lower: 64% for the first, 111% for the second.

OC(CCn1nc2c(Br)c(Br)c(Br)c(Br)c2n1)c1cccc(Cl)c1 (stereo not given) gave a viability at 25 µM of 101%.

Each molecule was assayed on CCRF-CEM (assay: Anticancer activity against human CCRF-CEM cells assessed as cell viability at 25 uM after 24 hrs by MTT assay). Details: read-out: Activity.
Format: functional

Going from C[C@H](O)Cn1nc2c(Br)c(Br)c(Br)c(Br)c2n1 to OCC(O)Cn1nc2c(Br)c(Br)c(Br)c(Br)c2n1 (racemic), the viability at 25 µM falls from 104% to 89%.

Molecule OC(CCn1nc2c(Br)c(Br)c(Br)c(Br)c2n1)c1cccc(Cl)c1 (stereo not given) has a viability at 25 µM of 118%.

Each molecule was assayed on CCRF-CEM (assay: Anticancer activity against human CCRF-CEM cells assessed as cell viability at 50 uM after 24 hrs by MTT assay). Details: read-out: Activity.
Format: functional

Going from C[C@H](O)Cn1nc2c(Br)c(Br)c(Br)c(Br)c2n1 to OCC(O)Cn1nc2c(Br)c(Br)c(Br)c(Br)c2n1 (racemic), the viability at 50 µM falls from 72% to 47%.

In the case of OC(CCn1nc2c(Br)c(Br)c(Br)c(Br)c2n1)c1cccc(Cl)c1 (stereo not given), the viability at 50 µM was 71%.
